Experimental data as given in publication PMC12827894, “Structure-guided design of picomolar-level macrocyclic TRPC5 channel inhibitors with antidepressant activity” (Acta Pharmaceutica Sinica. B, 2025).
Where a SMILES comes first, the peptide text is derived from it. Bridges are numbered along the chain shown (N, C = ends).

What was measured:
TRPC5 = target: T1, TRPC5 (Homo sapiens, UniProt Q9UL62); assay: cell-based; conditions: for IC50: HEK293T, 100 nmol/L Englerin A, read-out: IC50, inhibition of TRPC5, calcium flux assay; for TRPC5 inhibitory activity in words (SAR): relative to compound 6
T1 sequence (Q9UL62 1-973): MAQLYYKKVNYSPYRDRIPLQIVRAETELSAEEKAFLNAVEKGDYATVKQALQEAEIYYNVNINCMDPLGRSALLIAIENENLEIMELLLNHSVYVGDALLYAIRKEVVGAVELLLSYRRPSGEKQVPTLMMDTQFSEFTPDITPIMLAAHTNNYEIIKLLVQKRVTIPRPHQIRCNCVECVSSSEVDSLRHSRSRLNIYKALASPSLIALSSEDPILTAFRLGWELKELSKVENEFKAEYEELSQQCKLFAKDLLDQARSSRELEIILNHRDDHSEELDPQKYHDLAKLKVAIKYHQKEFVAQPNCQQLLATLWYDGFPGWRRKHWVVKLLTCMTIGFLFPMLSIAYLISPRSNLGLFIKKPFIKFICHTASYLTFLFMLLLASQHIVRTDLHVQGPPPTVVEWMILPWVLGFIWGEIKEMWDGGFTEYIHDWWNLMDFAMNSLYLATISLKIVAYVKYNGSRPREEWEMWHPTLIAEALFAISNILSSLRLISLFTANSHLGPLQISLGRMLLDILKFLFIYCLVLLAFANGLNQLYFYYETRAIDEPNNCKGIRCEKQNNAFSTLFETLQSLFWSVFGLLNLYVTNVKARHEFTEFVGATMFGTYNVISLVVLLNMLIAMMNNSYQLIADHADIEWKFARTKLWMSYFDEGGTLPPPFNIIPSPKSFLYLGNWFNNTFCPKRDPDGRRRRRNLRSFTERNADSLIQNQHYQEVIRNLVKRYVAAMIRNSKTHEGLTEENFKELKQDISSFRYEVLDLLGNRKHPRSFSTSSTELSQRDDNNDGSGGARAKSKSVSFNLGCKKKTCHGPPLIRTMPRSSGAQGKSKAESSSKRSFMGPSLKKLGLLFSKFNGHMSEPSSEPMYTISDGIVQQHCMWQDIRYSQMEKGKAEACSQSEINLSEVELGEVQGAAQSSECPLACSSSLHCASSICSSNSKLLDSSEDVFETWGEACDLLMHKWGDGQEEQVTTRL

CCK1 = target: T2, CCK1 (Homo sapiens, UniProt P32238); assay: SafetyOne44 panel: CCK1; type: cell-based; conditions: CCK1, antagonist mode; read-out: Antagonist Reference Compound IC50
T2 construct: purchased ICE Bioscience ICESTP™ SafetyOne44 Panel
T2 sequence (P32238 1-428): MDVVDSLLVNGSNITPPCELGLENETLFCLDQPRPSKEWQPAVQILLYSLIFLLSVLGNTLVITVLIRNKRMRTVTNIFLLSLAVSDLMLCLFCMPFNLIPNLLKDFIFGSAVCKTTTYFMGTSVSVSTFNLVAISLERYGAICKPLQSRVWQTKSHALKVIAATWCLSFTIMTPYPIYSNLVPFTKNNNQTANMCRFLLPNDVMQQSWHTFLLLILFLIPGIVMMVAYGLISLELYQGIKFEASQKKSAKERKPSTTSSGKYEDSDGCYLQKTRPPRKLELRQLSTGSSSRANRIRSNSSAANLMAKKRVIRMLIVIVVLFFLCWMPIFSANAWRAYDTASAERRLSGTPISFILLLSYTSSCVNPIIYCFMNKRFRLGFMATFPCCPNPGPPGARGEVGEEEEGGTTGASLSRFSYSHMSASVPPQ

NR1/NR2B = target: T3, NR1/NR2B (Homo sapiens, UniProt Q05586+Q13224); assay: SafetyOne44 panel ion channels: NR1/NR2B; type: cell-based
T3 construct: ICE Bioscience ICESTP SafetyOne44 Panel
T3 sequence (Q13224 27-1484, other chains not shown): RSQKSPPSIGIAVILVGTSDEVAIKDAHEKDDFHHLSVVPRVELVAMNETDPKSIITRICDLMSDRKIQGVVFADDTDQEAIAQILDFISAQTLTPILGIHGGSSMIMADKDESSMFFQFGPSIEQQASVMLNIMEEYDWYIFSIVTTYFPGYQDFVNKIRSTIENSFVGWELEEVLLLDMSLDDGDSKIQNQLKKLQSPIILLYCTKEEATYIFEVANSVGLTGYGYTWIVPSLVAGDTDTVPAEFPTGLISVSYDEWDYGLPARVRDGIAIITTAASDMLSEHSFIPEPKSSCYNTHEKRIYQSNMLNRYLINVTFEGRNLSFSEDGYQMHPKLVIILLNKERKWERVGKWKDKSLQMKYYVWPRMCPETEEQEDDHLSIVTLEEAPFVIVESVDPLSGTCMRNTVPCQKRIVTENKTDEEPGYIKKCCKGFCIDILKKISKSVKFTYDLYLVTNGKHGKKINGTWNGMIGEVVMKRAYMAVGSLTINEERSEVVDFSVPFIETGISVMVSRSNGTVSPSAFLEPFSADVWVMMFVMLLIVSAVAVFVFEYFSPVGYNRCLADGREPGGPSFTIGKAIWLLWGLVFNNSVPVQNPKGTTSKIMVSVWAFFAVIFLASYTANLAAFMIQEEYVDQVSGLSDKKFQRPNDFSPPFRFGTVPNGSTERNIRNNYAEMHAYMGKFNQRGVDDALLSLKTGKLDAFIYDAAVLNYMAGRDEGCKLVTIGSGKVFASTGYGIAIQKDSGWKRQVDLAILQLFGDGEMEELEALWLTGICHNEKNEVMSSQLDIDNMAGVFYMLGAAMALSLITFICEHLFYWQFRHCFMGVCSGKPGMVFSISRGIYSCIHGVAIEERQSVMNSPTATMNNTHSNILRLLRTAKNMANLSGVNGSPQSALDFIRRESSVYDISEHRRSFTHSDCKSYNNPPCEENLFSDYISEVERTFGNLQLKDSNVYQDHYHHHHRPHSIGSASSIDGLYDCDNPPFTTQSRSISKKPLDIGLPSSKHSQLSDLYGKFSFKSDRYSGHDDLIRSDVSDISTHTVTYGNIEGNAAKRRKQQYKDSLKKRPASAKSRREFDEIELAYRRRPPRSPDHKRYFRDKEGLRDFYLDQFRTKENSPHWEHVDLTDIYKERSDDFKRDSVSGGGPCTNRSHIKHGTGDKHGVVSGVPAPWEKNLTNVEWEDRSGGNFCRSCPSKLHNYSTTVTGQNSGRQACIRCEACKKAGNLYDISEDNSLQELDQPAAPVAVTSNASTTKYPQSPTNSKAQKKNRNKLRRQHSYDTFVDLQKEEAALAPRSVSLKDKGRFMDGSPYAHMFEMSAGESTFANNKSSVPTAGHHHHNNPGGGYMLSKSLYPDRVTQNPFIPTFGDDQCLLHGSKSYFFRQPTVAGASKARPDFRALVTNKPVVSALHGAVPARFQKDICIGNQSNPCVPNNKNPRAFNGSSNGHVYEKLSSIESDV

LCK = target: T4, LCK (Homo sapiens, UniProt P06239); assay: biochemical; conditions: read-out: Antagonist Reference Compound IC50
T4 construct: purchased ICE Bioscience ICESTP™ SafetyOne44 Panel
T4 sequence (P06239 whole entry): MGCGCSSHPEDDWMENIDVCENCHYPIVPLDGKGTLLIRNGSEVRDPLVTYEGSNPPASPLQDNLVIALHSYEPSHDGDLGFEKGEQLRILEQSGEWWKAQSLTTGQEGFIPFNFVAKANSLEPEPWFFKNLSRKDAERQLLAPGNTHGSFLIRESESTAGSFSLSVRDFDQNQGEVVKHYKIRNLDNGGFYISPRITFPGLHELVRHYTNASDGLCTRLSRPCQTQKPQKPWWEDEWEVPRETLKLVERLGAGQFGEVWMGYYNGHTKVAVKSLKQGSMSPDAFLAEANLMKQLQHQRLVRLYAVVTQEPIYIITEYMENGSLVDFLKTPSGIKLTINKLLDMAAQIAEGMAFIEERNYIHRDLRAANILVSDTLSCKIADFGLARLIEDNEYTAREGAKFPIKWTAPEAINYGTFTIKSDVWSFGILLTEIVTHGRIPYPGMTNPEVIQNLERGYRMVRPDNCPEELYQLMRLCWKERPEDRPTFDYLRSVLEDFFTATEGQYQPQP

DAT = target: T5, DAT (Homo sapiens, UniProt Q01959); assay: SafetyOne44 panel: DAT; type: cell-based; conditions: read-out: Antagonist Reference Compound IC50
T5 construct: purchased ICE Bioscience ICESTP™ SafetyOne44 Panel

5-HTT = target: T6, 5-HTT (Homo sapiens, UniProt P31645); assay: SafetyOne44 panel: 5-HTT; type: cell-based; conditions: read-out: Antagonist Reference Compound IC50
T6 construct: purchased ICE Bioscience ICESTP™ SafetyOne44 Panel
T6 sequence (P31645 whole entry): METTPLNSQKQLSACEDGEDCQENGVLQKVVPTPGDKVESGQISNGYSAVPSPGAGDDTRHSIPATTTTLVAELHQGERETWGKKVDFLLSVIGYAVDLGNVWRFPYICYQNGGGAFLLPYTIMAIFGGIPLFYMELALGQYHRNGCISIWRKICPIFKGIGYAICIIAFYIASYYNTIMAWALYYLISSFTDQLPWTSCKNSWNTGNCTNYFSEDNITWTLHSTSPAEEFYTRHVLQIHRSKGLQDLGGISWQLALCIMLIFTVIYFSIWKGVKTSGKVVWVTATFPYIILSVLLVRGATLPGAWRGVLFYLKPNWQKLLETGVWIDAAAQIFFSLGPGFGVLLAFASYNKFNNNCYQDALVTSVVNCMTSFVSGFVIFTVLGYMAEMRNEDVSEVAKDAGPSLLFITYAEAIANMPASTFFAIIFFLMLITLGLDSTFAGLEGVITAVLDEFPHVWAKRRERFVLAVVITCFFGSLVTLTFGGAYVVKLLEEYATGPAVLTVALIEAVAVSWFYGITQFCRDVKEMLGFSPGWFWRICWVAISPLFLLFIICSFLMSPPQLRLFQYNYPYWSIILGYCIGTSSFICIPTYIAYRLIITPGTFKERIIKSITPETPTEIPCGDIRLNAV

NET = target: T7, NET (Homo sapiens, UniProt P23975); assay: SafetyOne44 panel: NET; type: cell-based
T7 construct: ICE Bioscience ICESTP SafetyOne44 Panel
T7 sequence (P23975 whole entry): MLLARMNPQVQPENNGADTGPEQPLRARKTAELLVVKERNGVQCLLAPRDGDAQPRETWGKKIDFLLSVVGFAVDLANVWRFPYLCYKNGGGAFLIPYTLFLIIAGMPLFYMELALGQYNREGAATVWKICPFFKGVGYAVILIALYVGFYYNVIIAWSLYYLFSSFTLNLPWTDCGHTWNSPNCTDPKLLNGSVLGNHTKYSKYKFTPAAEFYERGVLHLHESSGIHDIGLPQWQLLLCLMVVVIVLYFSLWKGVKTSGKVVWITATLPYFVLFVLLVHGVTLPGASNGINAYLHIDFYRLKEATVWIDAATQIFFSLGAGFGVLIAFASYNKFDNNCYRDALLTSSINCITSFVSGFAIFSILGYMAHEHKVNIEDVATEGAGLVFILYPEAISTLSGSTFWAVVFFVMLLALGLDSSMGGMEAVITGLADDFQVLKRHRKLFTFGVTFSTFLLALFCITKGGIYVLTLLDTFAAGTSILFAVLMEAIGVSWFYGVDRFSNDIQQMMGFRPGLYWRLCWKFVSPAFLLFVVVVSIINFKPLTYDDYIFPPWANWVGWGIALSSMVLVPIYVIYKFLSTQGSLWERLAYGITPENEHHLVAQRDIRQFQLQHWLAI

H2 = target: T8, H2 (Homo sapiens, UniProt P25021); assay: SafetyOne44 panel: H2; type: cell-based; conditions: H2, antagonist mode; read-out: Antagonist Reference Compound IC50
T8 construct: purchased ICE Bioscience ICESTP™ SafetyOne44 Panel
T8 sequence (P25021 whole entry): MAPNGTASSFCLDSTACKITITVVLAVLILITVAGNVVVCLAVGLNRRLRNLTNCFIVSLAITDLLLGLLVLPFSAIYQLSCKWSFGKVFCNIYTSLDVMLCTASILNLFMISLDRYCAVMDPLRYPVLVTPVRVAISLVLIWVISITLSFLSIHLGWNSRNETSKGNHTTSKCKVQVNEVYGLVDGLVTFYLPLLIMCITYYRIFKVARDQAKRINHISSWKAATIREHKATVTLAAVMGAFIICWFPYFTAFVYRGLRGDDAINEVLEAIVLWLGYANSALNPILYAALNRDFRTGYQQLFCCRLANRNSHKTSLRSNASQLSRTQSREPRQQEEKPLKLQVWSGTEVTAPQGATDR

5-HT1B = target: T9, 5-HT1B (Homo sapiens, UniProt P28222); assay: cell-based; conditions: agonist mode, read-out: Agonist Reference Compound EC50
T9 construct: purchased ICE Bioscience ICESTP SafetyOne44 Panel

nAChRα4β2 = target: T10, nAChRα4β2 (Homo sapiens, UniProt P17787+P43681); assay: SafetyOne44 panel ion channels: nAChRα4β2; type: cell-based; conditions: nAChRα4β2, antagonist mode; read-out: Antagonist Reference Compounds IC50
T10 construct: ICE Bioscience ICESTP SafetyOne44 Panel

ETA = target: T11, ETA (Homo sapiens, UniProt P25101); assay: SafetyOne44 panel: ETA; type: cell-based
T11 construct: purchased ICE Bioscience ICESTP™ SafetyOne44 Panel
T11 sequence (P25101 21-427): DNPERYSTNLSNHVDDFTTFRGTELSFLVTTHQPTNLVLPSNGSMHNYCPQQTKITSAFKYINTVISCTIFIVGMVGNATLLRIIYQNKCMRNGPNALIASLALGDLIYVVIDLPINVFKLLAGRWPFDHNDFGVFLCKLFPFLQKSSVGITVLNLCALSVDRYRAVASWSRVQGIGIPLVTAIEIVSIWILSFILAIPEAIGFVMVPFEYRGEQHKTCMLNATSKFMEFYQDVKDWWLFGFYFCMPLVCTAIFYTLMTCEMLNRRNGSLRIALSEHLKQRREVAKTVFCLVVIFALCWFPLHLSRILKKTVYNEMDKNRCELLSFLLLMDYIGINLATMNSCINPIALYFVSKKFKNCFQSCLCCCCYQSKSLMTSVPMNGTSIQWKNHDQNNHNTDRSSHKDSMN

5-HT2B = target: T12, 5-HT2B (Homo sapiens, UniProt P41595); assay: cell-based; type: cell-based; conditions: read-out: Antagonist Reference Compound IC50
T12 construct: purchased ICE Bioscience ICESTP SafetyOne44 Panel
T12 sequence (P41595 whole entry): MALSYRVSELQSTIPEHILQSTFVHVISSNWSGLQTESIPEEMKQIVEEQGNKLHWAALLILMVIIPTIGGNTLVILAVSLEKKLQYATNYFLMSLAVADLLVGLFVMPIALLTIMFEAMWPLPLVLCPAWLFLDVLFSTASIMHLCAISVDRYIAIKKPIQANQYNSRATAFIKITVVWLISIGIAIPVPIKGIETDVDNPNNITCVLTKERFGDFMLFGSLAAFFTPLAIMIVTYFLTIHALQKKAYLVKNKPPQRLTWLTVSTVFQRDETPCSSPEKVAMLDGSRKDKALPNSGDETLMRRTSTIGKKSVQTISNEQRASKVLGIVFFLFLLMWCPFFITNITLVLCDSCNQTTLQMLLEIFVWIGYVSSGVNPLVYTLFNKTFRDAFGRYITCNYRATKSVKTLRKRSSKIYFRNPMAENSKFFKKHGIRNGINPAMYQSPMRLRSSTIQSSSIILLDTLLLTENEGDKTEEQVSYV

IKs = target: T13, IKs (Homo sapiens, UniProt P51787); assay: SafetyOne44 panel ion channels: IKs; type: cell-based
T13 construct: ICE Bioscience ICESTP SafetyOne44 Panel
T13 sequence (P51787 whole entry): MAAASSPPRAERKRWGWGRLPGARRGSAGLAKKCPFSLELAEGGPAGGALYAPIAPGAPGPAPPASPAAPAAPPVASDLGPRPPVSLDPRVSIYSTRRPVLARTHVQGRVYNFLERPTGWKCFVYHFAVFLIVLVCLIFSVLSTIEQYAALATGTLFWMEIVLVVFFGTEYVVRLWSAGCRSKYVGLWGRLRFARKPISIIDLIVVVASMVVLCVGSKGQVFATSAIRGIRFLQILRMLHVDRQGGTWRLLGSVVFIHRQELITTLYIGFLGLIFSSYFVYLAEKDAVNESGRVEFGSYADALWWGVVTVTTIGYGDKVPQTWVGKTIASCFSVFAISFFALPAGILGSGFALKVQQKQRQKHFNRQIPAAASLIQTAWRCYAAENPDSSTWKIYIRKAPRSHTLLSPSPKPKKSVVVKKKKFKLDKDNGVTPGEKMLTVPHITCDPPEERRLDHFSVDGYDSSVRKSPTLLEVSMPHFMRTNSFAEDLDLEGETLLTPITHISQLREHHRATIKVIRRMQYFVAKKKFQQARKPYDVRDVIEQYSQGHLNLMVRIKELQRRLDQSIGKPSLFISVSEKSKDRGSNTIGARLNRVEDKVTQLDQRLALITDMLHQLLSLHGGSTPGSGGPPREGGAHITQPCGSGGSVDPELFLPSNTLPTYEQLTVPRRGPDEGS

## O=c1c2c3nc(n2Cc2ccc(Cl)cc2)Oc2ccc(Cl)c(c2)OCCCCCCn3c(=O)n1CCCO [compound 9]
TRPC5
  IC50: 97.5 nM
TRPC5; calcium flux, SAR
  fold decrease in activity (vs compound 6): about 90 fold

## O=c1c2c3nc(n2Cc2ccc(Cl)cc2)Oc2cccc(c2)OCCCCCn3c(=O)n1CCCO [compound 5]
TRPC5
  IC50: 28.4 nM

## O=C1NCCCCCn2c(=O)n(CCCO)c(=O)c3c2nc(n3Cc2ccc(Cl)cc2)Oc2cccc1c2 [compound 17]
TRPC5
  IC50: > 10000 nM
TRPC5; calcium flux
  TRPC5 inhibitory activity in words (SAR): completely abolishing the activity

## CCCn1c2nc3c1c(=O)n(CCCO)c(=O)n3CCCCCCOc1cccc(c1)O2 [compound 12]
TRPC5
  IC50: 3500 nM
TRPC5; calcium flux, SAR
  fold decrease in activity (vs compound 6): over 1000 fold

## O=c1c2c3nc(n2CCC(F)(F)F)Oc2cccc(c2)OCCCCCCn3c(=O)n1CCCO [compound 13]
TRPC5
  IC50: 1200 nM
TRPC5; calcium flux, SAR
  fold decrease in activity (vs compound 6): over 1000 fold

## O=c1c2c3nc(n2Cc2ccc(Cl)cc2)Oc2cccc(c2)OCCNCCCn3c(=O)n1CCCO [compound 19]
TRPC5
  IC50: 840 nM
TRPC5; calcium flux
  TRPC5 inhibitory activity in words (SAR): reduced activity

## CCCCCN(CCCOC)C(=O)C(CCC(=O)O)NC(=O)c1ccc(Cl)c(Cl)c1 (stereo not drawn) [Loxiglumide, reference compound]
CCK1
  IC50: 353 nM

## O=c1c2c3nc(n2Cc2cccc(Cl)c2)Oc2cccc(c2)OCCCCCCn3c(=O)n1CCCO [compound 16]
TRPC5
  IC50: 1.8 nM
TRPC5; calcium flux
  TRPC5 inhibitory activity in words (SAR): tolerated

## O=c1c2c3nc(n2Cc2ccc(Cl)cc2)Oc2cccc(c2)COCCOCCn3c(=O)n1CCCO [compound 18]
TRPC5
  IC50: 170 nM
TRPC5; calcium flux, SAR
  fold decrease in activity (vs compound 6): 100 fold

## NCC(=O)O [Glycine, reference compound]
NR1/NR2B; read-out: Agonist Reference Compounds EC50
  EC50: 132 nM

## Cc1cc(-c2cc(O)ccc2Cl)cc2nnc(Nc3ccc(OCCN4CCCC4)cc3)nc12 [TG 100572, reference compound]
LCK
  IC50: 0.76 nM

## c1ccc2cc([C@]34CNC[C@H]3C4)ccc2c1 [Centanafadine, reference compound]
DAT
  IC50: 144 nM
5-HTT
  IC50: 126 nM
NET
  IC50: 139 nM

## CC(C)(O)CCn1c(=O)c2c3nc(n2Cc2ccc(Cl)cc2)Oc2cccc(c2)OCCCCCCn3c1=O [compound 20]
TRPC5
  IC50: 10000 nM

## CNC(=C[N+](=O)[O-])NCCSCc1csc(CN(C)C)n1 [Nizatidine, reference compound]
H2
  IC50: 112 nM

## COc1ccc2[nH]cc(C3=CCNCC3)c2c1 [RU 24969, reference compound]
5-HT1B
  EC50: 4.25 nM

## NC(CCCP(=O)(O)O)C(=O)O [D-AP5, reference compound]
NR1/NR2B; NR1/NR2B, antagonist mode
  Antagonist Reference Compounds % Inh: 87.44%

## O=c1c2c3nc(n2Cc2ccc(Cl)cc2)Oc2cc(ccc2Cl)OCCCCCCn3c(=O)n1CCCO [compound 8]
TRPC5
  IC50: 89.1 nM
TRPC5; calcium flux, SAR
  fold decrease in activity (vs compound 6): about 90 fold

## O=c1c2c3nc(n2Cc2ccc(Cl)cc2)Oc2cccc(c2)OCCCCCCCn3c(=O)n1CCCO [compound 7]
TRPC5
  IC50: 19.2 nM

## CCN(CC)CCOC(=O)C(c1ccccc1)c1ccccc1 [Adiphenine, reference compound]
nAChRα4β2
  IC50: 547 nM

## CC(O)CCn1c(=O)c2c3nc(n2Cc2ccc(Cl)cc2)Oc2cccc(c2)OCCCCCCn3c1=O (stereo not drawn) [compound 21]
TRPC5
  IC50: 10 nM
TRPC5; calcium flux
  TRPC5 inhibitory activity in words (SAR): tolerated

## CCCNS(=O)(=O)Nc1ncnc(OCCOc2ncc(Br)cn2)c1-c1ccc(Br)cc1 [Macitentan, reference compound]
ETA; ETA, antagonist mode, read-out: Antagonist Reference Compound IC50
  IC50: 3.29 nM

## O=c1c2c3nc(n2Cc2ccc(Cl)cc2)Oc2cccc(c2)OCCCCCCn3c(=O)n1CCCO [compound 6]
TRPC5
  IC50: 1.1 nM

## CC(CO)Cn1c(=O)c2c3nc(n2Cc2ccc(Cl)cc2)Oc2cccc(c2)OCCCCCCn3c1=O (stereo not drawn) [compound 22]
TRPC5
  IC50: 220 nM

## O=c1c2c3nc(n2Cc2nccs2)Oc2cccc(c2)OCCCCCCn3c(=O)n1CCCO [compound 14]
TRPC5
  IC50: 1500 nM
TRPC5; calcium flux, SAR
  fold decrease in activity (vs compound 6): over 1000 fold

## O=c1c2c3nc(n2Cc2ccc(Cl)cc2)Oc2cccc(c2)OCCCCCCn3c(=O)n1CC(O)CO (stereo not drawn) [compound 23]
TRPC5
  IC50: 790 nM

## O=c1c2c3nc(n2Cc2ccc(Cl)cc2)Oc2cncc(c2)OCCCCCCn3c(=O)n1CCCO [compound 11]
TRPC5
  IC50: 0.08 nM
TRPC5; calcium flux, SAR
  fold increase in activity (vs compound 6): about 10 fold

## CC[C@H](C)[C@H](NC(=O)[C@H](CC(=O)O)NC(=O)[C@H](CC(C)C)NC(=O)[C@H](Cc1cnc[nH]1)NC(=O)[C@@H]1CSSC[C@H](N)C(=O)N[C@@H](CO)C(=O)N[C@H]2CSSC[C@H](NC(=O)[C@H](CCC(=O)O)NC(=O)[C@H](CCCCN)NC(=O)[C@H](CC(=O)O)NC(=O)[C@H](CC(C)C)NC(=O)[C@H](Cc3c[nH]c4ccccc34)NC(=O)[C@H](CO)NC(=O)[C@H](CO)NC2=O)C(=O)N[C@@H](C(C)C)C(=O)N[C@@H](Cc2ccc(O)cc2)C(=O)N[C@@H](Cc2ccccc2)C(=O)N1)C(=O)N[C@H](C(=O)N[C@@H](Cc1c[nH]c2ccccc12)C(=O)O)[C@@H](C)CC [Endothelin 2, reference compound] (H-CSCSSWLDKECVYFCHLDIIW-OH; disulfide 1-15, 3-11)
ETA
  EC50: 1.89 nM

## O=c1c2c3nc(n2Cc2ccc(Cl)cc2)Oc2cccc(c2)OCCCCCCn3c(=O)n1CC(F)(F)CO [compound 24]
TRPC5
  IC50: 440 nM

## O=c1c2c3nc(n2Cc2ncco2)Oc2cccc(c2)OCCCCCCn3c(=O)n1CCCO [compound 15]
TRPC5
  IC50: > 10000 nM
TRPC5; calcium flux, SAR
  fold decrease in activity (vs compound 6): over 1000 fold

## CC(C)c1cc(-c2ccc(F)c3ccccc23)nc(N)n1 [RS-127445, reference compound]
5-HT2B
  IC50: 0.972 nM

## CCS(=O)(=O)N(C)[C@H]1c2cc(C#N)ccc2OC(C)(C)[C@@H]1O [293B, reference compound]
IKs
  Antagonist Reference Compounds % Inh: 90.96%
